Biological target: T1, human recombinant PPARγ (Homo sapiens, UniProt P37231)
T1 sequence (P37231 1-505): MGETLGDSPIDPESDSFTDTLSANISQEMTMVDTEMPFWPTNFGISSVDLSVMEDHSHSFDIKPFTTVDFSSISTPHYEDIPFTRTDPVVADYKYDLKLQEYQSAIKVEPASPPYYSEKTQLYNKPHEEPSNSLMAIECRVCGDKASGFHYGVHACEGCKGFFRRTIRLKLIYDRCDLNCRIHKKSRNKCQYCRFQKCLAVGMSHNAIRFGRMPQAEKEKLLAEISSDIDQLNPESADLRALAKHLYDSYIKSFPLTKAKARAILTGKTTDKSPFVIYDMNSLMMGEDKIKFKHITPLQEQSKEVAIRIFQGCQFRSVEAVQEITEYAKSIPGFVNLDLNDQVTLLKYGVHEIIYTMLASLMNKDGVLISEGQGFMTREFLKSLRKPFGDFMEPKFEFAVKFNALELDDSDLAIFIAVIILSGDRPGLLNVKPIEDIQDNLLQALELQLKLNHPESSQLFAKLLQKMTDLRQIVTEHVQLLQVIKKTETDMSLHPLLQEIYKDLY
Assay: FP-based PPARγ ligand screening assay
Type: binding
Settings: concentration of 10.0 μM; Figure 2

4-((5-(4-Chlorophenyl)-4-methylthiazol-2-yl)amino)-4-oxobutanoic acid [Compound 4f]
agonistic activity in primary FP screening: unable to promote agonistic activity

— publication PMC4892293 (Drug Design, Development and Therapy, 2016)
